Experimental data: patent US20110092544A1, “FUNGICIDAL PYRIDINES” (E.I. DU PONT DE nemours and company, priority 2008, published 2011)

Key:
[1] = test system: Erysiphe graminis f. sp. tritici; assay: Test A: wheat powdery mildew, preventive spray on wheat seedlings, visual disease rating; format: in vivo; conditions: for pest or weed control at 40 ppm / pest or weed control at 200 ppm: Blumeria graminis, 192 h; for pest or weed control at 40 ppm: 40 ppm (compound number followed by *); for pest or weed control at 200 ppm / Test A rating (% disease control): 100 = 100% disease control, 0 = no control, 200 ppm
Summary of the method: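 Acetone/water (50/50) suspension with 250 ppm surfactant sprayed to run-off on wheat seedlings (200 ppm ≈ 500 g/ha); inoculated next day with E. graminis spore dust. Incubated 8 days at 20° C, then visually rated 0–100% disease control versus untreated controls; tests at 200 ppm or 40 ppm.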

[2] = test system: Septoria tritici; assay: Test C: wheat leaf blotch, preventive spray on wheat seedlings, visual disease rating; format: in vivo; conditions: for pest or weed control at 40 ppm: 40 ppm (compound number followed by *)
Summary of the method: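 Wheat seedlings sprayed to run-off with compound in acetone/water plus 250 ppm surfactant at 200 ppm (≈500 g/ha), or 40 ppm where marked; inoculated with Septoria tritici next day. Held saturated at 20 °C for 48 h, then 19 days at 20 °C; disease control rated visually 0–100 versus controls.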

[3] = test system: Puccinia recondite f. sp. tritici; assay: Test B: wheat leaf rust, preventive spray on wheat seedlings, visual disease rating; format: in vivo; conditions: for pest or weed control at 40 ppm / pest or weed control at 200 ppm: 192 h; for pest or weed control at 40 ppm: 40 ppm (compound number followed by *); for pest or weed control at 200 ppm / Test B rating (% disease control): 100 = 100% disease control, 0 = no control, 200 ppm
Summary of the method: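 Wheat seedlings were sprayed to run-off with compound suspension, 200 ppm (≈500 g/ha) or 40 ppm where marked, containing surfactant in acetone/water. Inoculation with Puccinia recondita spores followed one day later, then 24 h in saturated humidity at 20° C and 7 days at 20° C. Disease control was rated visually, 0–100% versus controls.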

[4] = test system: Botrytis cinerea; assay: Test F: tomato botrytis, preventive spray on tomato seedlings, visual disease rating; format: in vivo; conditions: for pest or weed control at 40 ppm / pest or weed control at 200 ppm: Botrytis cinerea, 120 h; for pest or weed control at 40 ppm: 40 ppm (compound number followed by *); for pest or weed control at 200 ppm / Test F rating (% disease control): 100 = 100% disease control, 0 = no control, 200 ppm
Summary of the method: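 Tomato seedlings sprayed to run-off with compound suspended in acetone/water (50/50) plus 250 ppm Trem 014, at 200 ppm (≈500 g/ha) or 40 ppm where marked. Inoculated next day with B. cinerea spores, 48 h saturated atmosphere at 20 °C, then 3 days at 24 °C. Visual rating, 0–100% disease control relative to controls.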

[5] = test system: Alternaria solani; assay: Test E: tomato early blight, preventive spray on tomato seedlings, visual disease rating; format: in vivo; conditions: for pest or weed control at 40 ppm / pest or weed control at 200 ppm: Alternaria solani, 168 h; for pest or weed control at 40 ppm: 40 ppm (compound number followed by *); for pest or weed control at 200 ppm / Test E rating (% disease control): 100 = 100% disease control, 0 = no control, 200 ppm
Summary of the method: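 Seedlings sprayed to run-off with compound in acetone/water plus 250 ppm Trem 014 (200 ppm ≈ 500 g/ha), inoculated with spores next day. Held 48 h saturated at 27 °C, then 5 days at 20 °C; visual rating 0–100% disease control relative to controls.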

[6] = test system: Septoria nodorum; assay: Test D: wheat glume blotch, preventive spray on wheat seedlings, visual disease rating; format: in vivo; conditions: for pest or weed control at 40 ppm / pest or weed control at 200 ppm: Parastagonospora nodorum, 216 h; for pest or weed control at 40 ppm: 40 ppm (compound number followed by *); for pest or weed control at 200 ppm / Test D rating (% disease control): 100 = 100% disease control, 0 = no control, 200 ppm
Summary of the method: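 Compounds in 3% acetone, then 50/50 acetone–water with 250 ppm Trem 014, sprayed to run-off at 200 ppm (500 g/ha; some at 40 ppm) one day before spore inoculation. Held 48 h saturated at 20 °C, then 7 days at 20 °C; visual rating as % disease control vs untreated (0–100).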

[7] = test system: Rhizoctonia oryzae; assay: Test G: turf brown patch, preventive spray on creeping bent grass seedlings, visual disease rating; format: in vivo; conditions: 200 ppm, 100 = 100% disease control, 0 = no control
From the text: General protocol for preparing test suspensions for Tests A-H: The test compounds were first dissolved in acetone in an amount equal to 3% of the final volume and then suspended at the desired concentration (in ppm) in acetone and purified water (50/50 mix) containing 250 ppm of the surfactant Trem® 014 (polyhydric alcohol esters). The resulting test suspensions were then used in tests A-H. Spraying a 200 ppm test suspension to the point of run-off on the test plants was the equivalent of a rate of 500 g/ha.
The test suspension was sprayed to the point of run-off on creeping bent grass seedlings. The following day the seedlings were inoculated with a spore suspension of Rhizoctonia oryzae (the causal agent of turf brown patch) and incubated in a saturated atmosphere at 27° C. for 48 h, and then moved to a growth chamber at 27° C. for 3 days, after which time disease ratings were visually made.
Results for Tests A-H are given in Table A. In the table, a rating of 100 indicates 100% disease control and a rating of 0 indicates no disease control (relative to the controls). A dash (-) indicates no test results. All results are for compounds tested at 200 ppm except where the compound number is followed by “*” which indicates the compound was tested at 40 ppm.

[8] = test system: Plasmopara viticola; assay: Test H: grape downy mildew, spray after inoculation of grape seedlings, visual disease rating; format: in vivo; conditions: 200 ppm, 100 = 100% disease control, 0 = no control
[9] = 200 ppm, 100 = 100% disease control, 0 = no control

| Structure (SMILES) | pest or weed control at 40 ppm [1] | pest or weed control at 40 ppm ([2]; Zymoseptoria tritici, 504 h) | pest or weed control at 40 ppm [3] | pest or weed control at 40 ppm [4] | melting point | pest or weed control at 40 ppm [5] | pest or weed control at 40 ppm [6] | Test A rating (% disease control) [1] | Test G rating (% disease control) [7] | Test H rating (% disease control) [8] | Test C rating (% disease control) [2, 9] | Test B rating (% disease control) [3] | Test F rating (% disease control) [4] | Test E rating (% disease control) [5] | Test D rating (% disease control) [6] | further results |
| --- | --- | --- | --- | --- | --- | --- | --- | --- | --- | --- | --- | --- | --- | --- | --- | --- |
| COc1cc(OC)cc(-c2c(CC#N)cnc(C)c2-c2c(F)cc(F)cc2F)c1 [Compound 124, 4-(3,5-dimethoxyphenyl)-6-methyl-5-(2,4,6-trifluorophenyl)-3-pyridineacetonitrile] | 100% | 99% | 100% | 100% | 131 to 133 °C | 100% | 100% |  |  |  |  |  |  |  |  |  |
| COc1cc(OC)cc(-c2c(CCl)cnc(C)c2-c2c(F)cc(F)cc2F)c1 [Compound 110, 5-(chloromethyl)-4-(3,5-dimethoxyphenyl)-2-methyl-3-(2,4,6-trifluorophenyl)pyridine] |  |  |  |  | 110 to 115 °C |  |  |  |  |  |  |  |  |  |  | pest or weed control at 200 ppm [1]: 100%; pest or weed control at 200 ppm ([2]; Zymoseptoria tritici, 504 h, 200 ppm, 100 = 100% disease control, 0 = no control): 96%; pest or weed control at 200 ppm [3]: 100%; pest or weed control at 200 ppm [4]: 99%; pest or weed control at 200 ppm [5]: 100%; pest or weed control at 200 ppm [6]: 87% |
| COc1cc(OC)c(Cl)c(-c2c(CC#N)cnc(C)c2-c2c(F)cc(F)cc2F)c1 [Compound 133, 4-(2-chloro-3,5-dimethoxyphenyl)-6-methyl-5-(2,4,6-trifluorophenyl)-3-pyridineacetonitrile] | 98% | 100% | 100% | 100% | 159 to 165 °C | 99% | 95% |  |  |  |  |  |  |  |  |  |
| COc1cc(OC)cc(-c2c(-c3ccccc3F)cnc(C)c2-c2c(F)cc(F)cc2F)c1 [Compound 89, 4-(3,5-dimethoxyphenyl)-5-(2-fluorophenyl)-2-methyl-3-(2,4,6-trifluorophenyl)pyridine] | 100% | 97% | 100% | 100% | 123 to 127 °C | 99% | 99% |  |  |  |  |  |  |  |  |  |
| COc1cc(OC)cc(-c2c(C(C)=O)cnc(C)c2-c2c(F)cccc2F)c1 [Compound 41] |  |  |  |  |  |  |  | 100% | 99% | 0% | 99% | 98% | 98% | 99% | 0% |  |
| COc1cc(OC)cc(-c2c(-c3ccccc3)c(C)nc(C)c2-c2ccc(F)cc2)c1 [Compound 22] |  |  |  |  |  |  |  | 78% | 0% | 0% | 95% | 55% | 99% | 0% | 0% |  |
| COc1cc(OC)cc(-c2c(C(C)C)cnc(C)c2-c2ccccc2)c1 [Compound 4] |  |  |  |  |  |  |  | 99% | 0% | 0% | 99% | 92% | 99% | 99% | 0% |  |
| CCOC(=O)c1cnc(C)c(-c2ccccc2F)c1-c1cc(OC)cc(OC)c1 [Compound 20] |  |  |  |  |  |  |  | 98% | 0% | 53% | 100% | 90% | 99% | 0% | 0% |  |
| CCOC(=O)c1cnc(C)c(-c2c(F)cc(F)cc2F)c1-c1cc(OC)cc(OC)c1 [Compound 130, ethyl 4-(3,5-dimethoxyphenyl)-6-methyl-5-(2,4,6-trifluorophenyl)-3-pyridinecarboxylate] |  |  |  |  | 93 to 95 °C |  |  |  |  |  |  |  |  |  |  | pest or weed control at 200 ppm [1]: 100%; pest or weed control at 200 ppm [3]: 93%; pest or weed control at 200 ppm [4]: 100%; pest or weed control at 200 ppm [5]: 99%; pest or weed control at 200 ppm [6]: 0% |
